Measurements as given in US7282325B2, “Method of preparing pharmaceutical compositions” (Solvay Pharmaceuticals GmbH, priority 2000, dated 2007).

Experiments:
[1] = test system: of the 3T3-F442A cell line; assay: Test model according to Hazen et al.: formation of acid-soluble metabolic products of the citric acid cycle; format: cell-based; details: Adipocyte; rat adipocytes of the 3T3-F442A cell line; read-out: inhibitory effect on the formation of acid-soluble metabolic products of the citric acid cycle (IC50)
From the text: In a second embodiment of the method according to the invention, compounds suitable for the treatment and/or prophylaxis of obesity can be discovered by selecting those compounds which are capable of reducing the amount of metabolic products formed in the citric acid cycle of isolated living mammalian cells or of lipidic secondary products of the citric acid cycle. […] Citrate is preferred. Furthermore, lipidic secondary products of the citric acid cycle, such as free fatty acids, are suitable as metabolic products. Lastly, in this second embodiment, the ability of the test compounds to inhibit the activity of at least one carboanhydrase occurring in mammals is also determined, although the test model used is set up differently from the first embodiment mentioned. The process of the second embodiment is based on the principle of determining in known manner the uptake of radioactivity from substrates of the citric acid cycle labeled with the ^14C-isotope into metabolic intermediate products or secondary products of the citric acid cycle of isolated, living mammalian cells and comparing the results obtained with the results obtained under otherwise identical conditions, but under the influence of CA-inhibitory compounds. Isolated living cells of rodents such as rats, mice or guinea-pigs, or of man, are preferably used in this variant of the method. Human cells are preferred. […]

[2] = biological target: T1, carboanhydrase of the subtype Va of mice (mCA Va) (Mus musculus, UniProt P23589); assay: 4-nitrophenylacetate-esterase enzyme activity test, mCA Va used at 120 nM; format: biochemical; details: mCA Va obtained by biotechnological processes; enzyme concentration 120 nM; read-out: inhibitory action on carboanhydrase of the subtype Va of mice (IC50)
T1 construct: made in house; host or cells: Escherichia coli BL 21 (DE3)
T1 sequence (P23589 30-299): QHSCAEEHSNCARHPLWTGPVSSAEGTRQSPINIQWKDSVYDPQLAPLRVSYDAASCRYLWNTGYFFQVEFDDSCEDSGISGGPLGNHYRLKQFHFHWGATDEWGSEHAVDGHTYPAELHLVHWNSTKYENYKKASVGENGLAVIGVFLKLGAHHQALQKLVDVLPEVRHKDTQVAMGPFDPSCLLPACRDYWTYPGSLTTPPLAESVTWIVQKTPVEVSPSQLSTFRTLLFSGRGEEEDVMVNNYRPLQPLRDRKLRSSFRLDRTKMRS
Protocol: In a departure from the test procedure described by Scozzafava et al, in this case the enzyme mCA Va was used in a concentration of 120 nM. The mCA Va was obtained in known manner by the method described by H. R. Heck et al., Journal of Biological Chemistry 269 (1994) 24742-24746. To this end, the strain of bacteria Escherichia coli BL 21 (DE3) was used, which was used with a plasmid vector which contained the sequence coding for mCA Va under the control of the T7 promoter which can be induced by isopropyl-β-D-thiogalactopyranoside (IPTG). The bacterial culture was inoculated at 37° C. with stirring into a Luria-Bertani liquid medium containing ampicillin (100 μg/ml) and its growth was monitored by spectrophotometry at 600 nm. Once the bacterial culture had entered the exponential growth phase, IPTG was added in a final concentration of 1 mmol/liter. After 3 hours incubation time (37° C. with stirring), the bacterial culture was centrifuged at 7000×g for 15 minutes, and the supernatant was discarded. The resulting pellet was taken up in 0.1 vol twice-distilled water, and lysozyme (100 μg/ml) was added thereto. The cell lysis took place under ultrasound treatment. […] After each ultrasound pulse, the absorption of the samples was determined at 600 nm, for which each 100 μl of a-sample was diluted with 900 μl twice-distilled water. […]

CC1(C)O[C@@H]2[C@@H](CO[C@@]3(COS(N)(=O)=O)OC(C)(C)O[C@@H]23)O1 [topiramate]
IC50 [1]: 348 nM | IC50 [2]: 74 nM
